Measured values as given in patent publication US20220041616A1, “SPIRO COMPOUND AND MEDICAL USES THEREOF” (The National Institutes of Pharmaceutical R&D Co., Ltd., priority 2018, published 2022).

Assays:
[1] = test system: HepG2 cells; experiment: In vitro inhibition of proliferation of HepG2 cells, CellTiter-Glo; format: cell-based, human; conditions: 3 days incubation, top concentration 30 μM
Text: CellTiter-Glo Analysis Kit (Promega) was used for the detection of the inhibitory effect of the present compound on the proliferation of HepG2 cells. The CellTiter-Glo detection method uses luciferase, which requires ATP for its reaction and luminescence. The intensity of the luminescent signal depends on the amount of ATP, and the amount of ATP depends on the number of living cells. Said analysis only requires that ATP in living cells is converted to luminescence by UltraGlo™ luciferase after treatment with the tested drug, so that the inhibitory effect of the compound is detected based on the luminescence intensity, and its IC50 value is calculated.
(§1) a. HepG2 cells were purchased from the American type culture collection (ATCC) resource bank. Cells were cultured in MEM (GIBCO) containing 10% fetal bovine serum, penicillin (100 units/mL) and streptomycin (100 μg/mL), and then incubated in a 37° C. incubator containing 5% carbon dioxide, and passaged once every 2 to 3 days.
b. On the first day, 800 HepG2 cells were inoculated in each well of a 384-well cell culture plate, and then incubated in a 37° C. incubator containing 5% carbon dioxide.
c. On the second day, the medium was changed to that containing the compound. The concentrations of the compound were 30 μM, 10 μM, 3.33 μM, 1.11 μM, 0.37 μM, 0.123 μM, 0.0411 μM, 0.0137 μM, 0.00457 μM and 0.00152 μM. The final concentration of DMSO was 0.3% (v/v). The plate was incubated for 3 days in a incubator containing 5% carbon dioxide at 37° C. The reaction system with paclitaxel at a final concentration of 1 μM was used as positive control; the reaction system with no compound but DMSO at a final concentration of 0.3% was used as negative control.
d. […]
f. The chemiluminescence signal value was read with Envision 2104 instrument.
The average value of the positive and negative control well and the standard deviation were calculated. The percentage inhibition rate was calculated according to the following formula: 100×[1−(compound−average value of positive control)/(average value of negative control−average value of positive control)]. […]

[2] = test system: HepG2 cells; experiment: In vitro inhibition of fatty acid synthesis in HepG2 cells ([14C]-acetate incorporation); format: cell-based, human; conditions: then 5 h [2-14C]-acetic acid
Protocol: Human liver tumor cells (HepG2 cells) with strong fatty acid synthesis ability were selected. The sample to be tested was added and incubated for 1 hour. Isotope-labeled [^14C]-sodium acetate was added to the cell culture medium and incubated for 5 hours. Then the cells were lysed, and the fatty acid components in the cell were extracted and separated. The relative content of the isotope integrated into the fatty acid was analyzed, so as to detect the inhibitory effect of the compound on fatty acid synthesis in HepG2 cells at different concentrations, and the IC50 value was calculated.
as §1, with “DMEM” for “MEM”, “serum (GIBCO),” for “serum,”, “μg/mL) (GIBCO),” for “μg/mL),”
b. On the first day, HepG2 cells were inoculated in a 24-well cell culture plate at 2×10^5 per well, and were incubated in a 37° C. incubator containing 5% carbon dioxide.
c. On the fourth day, the medium was changed to that containing the compound. The initial concentration of the compound was 3 μM or 0.3 μM, 3-fold dilution, 8 concentration gradients, and the final concentration of DMSO was 0.5% (v/v). The plate was incubated in a 37° C. incubator containing 5% carbon dioxide for 1 hour. GS-0976 was positive compound control; the reaction system with no compound but DMSO at a final concentration of 0.5% was negative control.
d. 1 μCi [2-^14C]-acetic acid was added to each well, and incubated for 5 hours in a 37° C. incubator containing 5% carbon dioxide.
e. The medium was first transferred to 15 mL centrifuge tubes. 0.5 mL of 0.1 M NaOH was added to each well of cells, and the lysed cell suspension was added to the corresponding 15 mL centrifuge tubes. 1 mL of ethanol and 0.17 mL of 50% KOH were added to each tube, and incubated in a water bath at 90° C. for 1 hour.
f. The sample were taken out and cooled to room temperature, then 5 mL petroleum ether was added to each tube, inverted several times, and centrifuged at 1000 rpm for 5 min. The upper organic phase was discarded and the aqueous phase was kept for fatty acid extraction. 1 mL of concentrated hydrochloric acid (its pH was ensured to be below 1) was added to each tube.
g. 5 mL petroleum ether was added to each tube, invert several times and centrifuged at 1000 rpm for 5 min. 4 mL petroleum ether layer was transferred to a new glass tube (18×180 mm). This step was repeated once.
h. The extracts were collected and placed in a water bath at 64° C. to evaporate for 30 min. Fatty acids were dissolved with 400 μL chloroform/n-hexane (1:1).
i. 50 μL sample were placed in iso-plate (Perkinelmer), 200 μL ULTIMA GOLD (Perkinelmer) was added to each well and incubated for 10 min at room temperature.
j. MicroBeta (Perkinelmer) was used to record the CPM scintillation signal.
The average value of the positive and negative control well and the standard deviation were calculated. IC50 was fitted by using XLFit 5.3.1.3 (2006-2011 ID Business Solutions Limited) with 4-Parameter Logistic Model or Sigmoidal Dose-Response Model:
Y=(Bottom+((Top−Bottom)/(1+((Log IC50/X)^Hillslope)))),
wherein X is the logarithm of the compound concentration, Y is CPM (count per minute); Top and Bottom are the Y values at the highest and lowest plateau of the curve; Hillslope is the Hill constant.

[3] = Homo sapiens, HepG2, 1 h compound

Row | SMILES | IC50 ([1]; Homo sapiens, HepG2, 72 h) [µM] | IC50 [2, 3] [nM] | IC50 [1] [µM] | IC50 ([2]; 1 h compound) [nM]
1 | COc1ccccc1C(CN1C(=O)C2(CCC(C(=O)O)C2)C(=O)c2c1sc(-c1ncco1)c2C)OC1CCOCC1 (mixture of isomers) [Compound 5x, 7′-(2-(2-methoxyphenyl)-2-((tetrahydro-2H-pyran-4-yl)oxy)ethyl)-3′-methyl-2′-(oxazol-2-yl)-4′,6′-dioxo-6′,7′-dihydro-4′H-spiro[cyclopentane-1,5′-thieno[2,3-b]pyridine]-3-carboxylic Acid] | > 30 | 50 to 500 |  | 
2 | COc1ccccc1C(CN1C(=O)C2(CCC(C(=O)O)C2)C(=O)c2c1sc(-c1ncco1)c2C)OC1CCOCC1 (mixture of isomers) [Compound 5y, 7′-(2-(2-methoxyphenyl)-2-((tetrahydro-2H-pyran-4-yl)oxy)ethyl)-3′-methyl-2′-(oxazol-2-yl)-4′,6′-dioxo-6′,7′-dihydro-4′H-spiro[cyclopentane-1,5′-thieno[2,3-b]pyridine]-3-carboxylic Acid] |  |  | > 30 | < 50
3 | COc1ccccc1C(CN1C(=O)C2(CCC(C(=O)O)C2)C(=O)c2c1sc(-c1ncco1)c2C)OC1CCOCC1 (single isomer, unassigned) [Compound 5b, 7′-(2-(2-methoxyphenyl)-2-((tetrahydro-2H-pyran-4-yl)oxy)ethyl)-3′-methyl-2′-(oxazol-2-yl)-4′,6′-dioxo-6′,7′-dihydro-4′H-spiro[cyclopentane-1,5′-thieno[2,3-b]pyridine]-3-carboxylic Acid] |  | < 50 |  | 
4 | COc1ccccc1C(CN1C(=O)C2(CC(C(=O)O)C2)C(=O)c2c1sc(-c1ncco1)c2C)OC1CCOCC1 (mixture of isomers) [Compound 8, 7′-(2-(2-methoxyphenyl)-2-((tetrahydro-2H-pyran-4-yl)oxy)ethyl)-3′-methyl-2′-(oxazol-2-yl)-4′,6′-dioxo-6′,7′-dihydro-4′H-spiro[cyclobutane-1,5′-thieno[2,3-b]pyridine]-3-carboxylic Acid] | > 30 | < 50 |  | 

Results, then the molecule that gave them:

Row | IC50 ([1]; Homo sapiens, HepG2, 72 h) [µM] | IC50 [2, 3] [nM] | IC50 [1] [µM] | IC50 ([2]; 1 h compound) [nM] | SMILES
5 |  | < 50 |  |  | COc1ccccc1C(CN1C(=O)C2(CC(C(=O)O)C2)C(=O)c2c1sc(-c1ncco1)c2C)OC1CCOCC1 (single isomer, unassigned) [Compound 8d, 7′-(2-(2-methoxyphenyl)-2-((tetrahydro-2H-pyran-4-yl)oxy)ethyl)-3′-methyl-2′-(oxazol-2-yl)-4′,6′-dioxo-6′,7′-dihydro-4′H-spiro[cyclobutane-1,5′-thieno[2,3-b]pyridine]-3-carboxylic Acid]
6 |  | < 50 |  |  | COc1ccccc1[C@H](CN1c2sc(-c3ncco3)c(C)c2C(=O)[C@]2(C[C@H](C(=O)O)C2)C1=O)OC1CCOCC1 [Compound 8c, 7′-(2-(2-methoxyphenyl)-2-((tetrahydro-2H-pyran-4-yl)oxy)ethyl)-3′-methyl-2′-(oxazol-2-yl)-4′,6′-dioxo-6′,7′-dihydro-4′H-spiro[cyclobutane-1,5′-thieno[2,3-b]pyridine]-3-carboxylic Acid]
